Reference: ChEMBL document CHEMBL6134928, “Novel Bicyclic DGK Inhibitors for Treating Metastatic Melanoma” (ACS Med Chem Lett, 2025)

Each compound was assayed against Diacylglycerol kinase alpha (Homo sapiens, UniProt P23743) (assay: Inhibition of recombinant human DGKalpha using DLG as substrate preincubated with compound followed by substrate addition and measured after 90 mins in presence of ATP by ADP-Glo reagent based analysis).
Sequence of Diacylglycerol kinase alpha (P23743 whole entry): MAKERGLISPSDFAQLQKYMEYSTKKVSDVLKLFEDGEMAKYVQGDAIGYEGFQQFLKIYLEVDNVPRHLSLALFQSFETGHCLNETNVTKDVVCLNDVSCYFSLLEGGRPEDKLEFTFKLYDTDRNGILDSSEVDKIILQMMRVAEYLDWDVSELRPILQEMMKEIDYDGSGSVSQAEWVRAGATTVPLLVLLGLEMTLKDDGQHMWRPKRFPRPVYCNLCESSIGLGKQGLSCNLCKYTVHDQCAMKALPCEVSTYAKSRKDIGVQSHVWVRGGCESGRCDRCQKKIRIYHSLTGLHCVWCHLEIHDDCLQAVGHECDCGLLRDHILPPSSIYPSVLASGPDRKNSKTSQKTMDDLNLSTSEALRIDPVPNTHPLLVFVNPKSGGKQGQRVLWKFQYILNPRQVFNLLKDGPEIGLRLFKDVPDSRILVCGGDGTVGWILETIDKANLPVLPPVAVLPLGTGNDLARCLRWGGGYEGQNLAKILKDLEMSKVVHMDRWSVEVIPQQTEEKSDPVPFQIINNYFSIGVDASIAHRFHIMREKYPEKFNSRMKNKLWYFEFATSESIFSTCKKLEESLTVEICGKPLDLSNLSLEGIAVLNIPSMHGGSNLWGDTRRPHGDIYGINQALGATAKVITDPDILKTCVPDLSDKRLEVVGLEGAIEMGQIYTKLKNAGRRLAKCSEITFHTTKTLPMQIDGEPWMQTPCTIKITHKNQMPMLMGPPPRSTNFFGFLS

IC50, ≤ 10 nM:
CC[C@@H]1CN(c2nc(=O)n(C)c3c2nc(C)n3C[C@@H]2CCCO2)[C@@H](C)CN1C(c1ccc(C(F)(F)F)cc1)C1CC(F)(F)C1 (stereo partly specified)
C[C@@H]1CN(c2nc(=O)n(C)c3c2nnn3C[C@H]2CCCO2)[C@@H](C)CN1C(c1ccc(F)cc1)c1ccc(F)cc1
C[C@@H]1CN(c2nc(=O)n(C)c3c2ncn3CC2(O)CCC2)[C@@H](C)CN1C(c1ccc(Cl)cc1)C1CC(F)(F)C1 (stereo partly specified)
Cc1nc2c(N3C[C@@H](C)N(C(c4ccc(F)cc4)c4ccc(F)cc4)C[C@@H]3C)nc(=O)[nH]c2n1C[C@@H]1CCCO1
C[C@@H]1CN(c2nc(=O)n(C)c3c2cnn3C)[C@@H](C)CN1C(c1ccc(F)cc1)c1ccc(F)cc1
C[C@@H]1CN(c2nc(=O)n(C)c3c2nnn3C[C@H]2CCCO2)[C@@H](C)CN1C(c1ccc(C(F)(F)F)cn1)c1ccc(C(F)(F)F)cn1
